Test system: Hs68 cells
Test: PDGF-induced proliferation in Hs68 cells (3H-thymidine uptake)
Assay type: cell-based, Human
Conditions: Hs68, PDGF-BB 5 ng/ml, concentration 1 × 10^−6 M
Procedure: Method: Human skin fibroblasts (Hs68, Institute for Fermentation, Osaka) were seeded in 48-well plates precoated with collagen type I (Falcon) (25000 cells/well), and cultured for one day. Then, the cells were cultured in Dulbecco's modified Eagle's medium (high glucose) containing 0.1% bovine serum albumin for 48 hours. Fifteen (15) minutes after the addition of the drug, the cells were stimulated with 5 ng/ml of PDGF-BB (Becton Dickinson Labware) containing 3H-thymidine (final concentration 0.4 mCi/ml) (Amersham). After 24 hours, the reaction was stopped with 7.5% trichloroacetic acid at 4° C. and the plate was allowed to stand at 4° C. for 30 minutes. The cells were washed with Ca^2+- and Mg^2-free phosphate-buffered saline (PBS), after then 0.1% sodium dodecyl sulfate (SDS)/0.4N NaOH was added and the plate was allowed to stand at 37° C. for 1 hour to lyze the cells. The whole content of each well was taken in a vial and neutralized with 1N HCl, and then toluene scintillator (Wako Pure Chemical Ind.) was added to each vial. After stirring, the amount of ^3H-thymidine incorporated in the cells was determined with a liquid scintillation counter. The cellular uptake of ^3H-thymidine was used as an indicator of cell proliferation. The effect of the drug on the PDGF-BB (5 ng/ml) uptake of ^3H-thymidine was expressed as % inhibition.

O=C1c2cnc3cccc(n23)CN1CCC1CCN(S(=O)(=O)C(F)(F)F)CC1 [86 (ii), 4,5-dihydro-4-[2-(1-trifluoromethane-sulfonylpiperidin-4-yl)ethan-1-yl]-3H-1,4,8b-triazaace-naphthylen-3-one]
% Inhibition of cell proliferation (3H-thymidine uptake): 96.6%

Source: patent publication US20010051631A1, “Tricyclic compounds, their production and use” (priority 1994, published 2001)
